Patent publication US7582627B2, “3-aminoquinazolin-2,4-dione antibacterial agents” (Warner-Lambert Company, priority 2000, dated 2009)
Values after ≈ are worked out from the molar mass of the structure shown. Counter-ions that a name gives are not always drawn. Like-named read-outs stand apart in the source and are kept apart here.

Legend:
E. coli JL4 = experiment: Cross resistance antibacterial assay, microtitration MIC; assay type: cell-based; settings: Escherichia coli, Tol C pump deficient strain with E. coli W3110 background, read-out: Minimum Inhibitory Concentrations E. coli JL4
Procedure: (§1) The compounds of the present invention are tested against an assortment of ciprofloxacin resistant E. coli and S. aureus organisms described below using standard microtitration techniques (Cohen, et al., Antimicrob. Agents Chemother., 1985; 28:766; Heifetz, et al., Antimicrob. Agents Chemother., 1974; 6:124).

S. aureus UC-76 = experiment: as above; assay type: cell-based; settings: Staphylococcus aureus, UC76; typical sensitive laboratory strain (wild type); read-out: Minimum Inhibitory Concentrations S. aureus UC-76
Procedure: as §1

S. aureus 2552 = experiment: as above; assay type: cell-based; settings: Staphylococcus aureus, read-out: Minimum Inhibitory Concentrations S. aureus 2552
Procedure: as §1

E. coli LLM1 = experiment: as above; assay type: cell-based; settings: Escherichia coli, LLM1, read-out: Minimum Inhibitory Concentrations E. coli LLM1
Procedure: as §1

S. aureus 2558 = experiment: as above; assay type: cell-based; settings: Staphylococcus aureus, 2558, read-out: Minimum Inhibitory Concentrations S. aureus 2558
Procedure: as §1

S. aureus 2554 = experiment: as above; assay type: cell-based; settings: Staphylococcus aureus, 2554, read-out: Minimum Inhibitory Concentrations S. aureus 2554
Procedure: as §1

E. coli gyrase = target: T1, E. coli gyrase (Escherichia coli, UniProt P0AES4+P0AES6); experiment: DNA gyrase supercoiling inhibition assay; assay type: biochemical
T1 construct: purchased Lucent, Ltd., Leicester, UK
Procedure: The effects of invention compounds on the activity of DNA gyrase is determined in the supercoiling inhibition assay, following reaction conditions recommended by the enzyme supplier (Lucent, Ltd., Leicester, UK). Reactions are performed in buffer G (35 mM Tris-HCl (pH 7.5), 24 mM KCl, 4 mM MgCl2, 2 mM DTT, 1.8 mM spermidine, 1 mM ATP, 0.1 mg/mL bovine serum albumin). Relaxed plasmid pBR322 (0.25 μg, Lucent, Ltd., Leicester, UK) is reacted with 1 U E. coli gyrase (Lucent, Ltd., Leicester, UK), in the absence or presence of test compounds, for 30 minutes at 37° C. Reactions are stopped by the addition of SDS and proteinase K to respective final concentrations of 1% and 0.5 mg/mL. After an additional 30 minutes at 37° C., one-tenth volume of 10× loading buffer (0.3% bromophenol blue, 16% Ficoll, 10 mM Na2HPO4) is added, and reactions are loaded onto agarose gels and electrophoresed. The concentration of representative invention compounds of Formula I inhibiting 50% of the supercoiling activity of DNA gyrase is given as an IC50 and recorded in Table 2.

E. coli Tol C = experiment: Antibacterial assay, microtitration MIC; assay type: cell-based; settings: Escherichia coli, read-out: Minimum Inhibitory Concentrations E. coli Tol C
Procedure: (§2) The compounds of the present invention are tested against an assortment of Gram negative and Gram positive organisms using standard microtitration techniques (Cohen et al., Antimicrob. Agents Chemother., 1985; 28:766; Heifetz et al., Antimicrob. Agents Chemother., 1974; 6:124). The results of the evaluation of representative 3-aminoquinazolin-2,4-diones of Formula I are shown in Table 2 and compared to two 3-hydroxyquinazolin-2,4-diones.

E. coli MC4100 = experiment: Antibacterial assay, microtitration MIC; assay type: cell-based; settings: Escherichia coli
Procedure: as §2

S. pyogenes C203 = experiment: Antibacterial assay, microtitration MIC; assay type: cell-based; settings: Streptococcus pyogenes
Procedure: as §2

S. aureus 29213 = experiment: Antibacterial assay, microtitration MIC; assay type: cell-based
Procedure: as §2

E. faecalis RB1 = experiment: Antibacterial assay, microtitration MIC; assay type: cell-based; settings: Enterococcus faecalis
Procedure: as §2

E. coli B90 = experiment: Antibacterial assay, microtitration MIC; assay type: cell-based; settings: Escherichia coli
Procedure: as §2

E. coli = experiment: In vivo median protective dose, lethal systemic infection; settings: mice
Procedure: (§3) The in vivo activity of invention compounds is evaluated according to the procedure of Miller et al., Proc. Soc. Exp. Biol. Med, 1944; 57:261. The median protective dose (PD50) is determined in mice given lethal systemic infections. Two 3-aminoquinazolin-2,4-diones of the invention are compared to a […], and the results are presented in Table 3. The results establish the unexpected superiority of the 3-amino invention compounds compared to similar 3-hydroxy analogs.

S. pyogenes = experiment: as above; settings: mice
Procedure: as §3

T1 sequence (P0AES4 whole entry, one chain of several): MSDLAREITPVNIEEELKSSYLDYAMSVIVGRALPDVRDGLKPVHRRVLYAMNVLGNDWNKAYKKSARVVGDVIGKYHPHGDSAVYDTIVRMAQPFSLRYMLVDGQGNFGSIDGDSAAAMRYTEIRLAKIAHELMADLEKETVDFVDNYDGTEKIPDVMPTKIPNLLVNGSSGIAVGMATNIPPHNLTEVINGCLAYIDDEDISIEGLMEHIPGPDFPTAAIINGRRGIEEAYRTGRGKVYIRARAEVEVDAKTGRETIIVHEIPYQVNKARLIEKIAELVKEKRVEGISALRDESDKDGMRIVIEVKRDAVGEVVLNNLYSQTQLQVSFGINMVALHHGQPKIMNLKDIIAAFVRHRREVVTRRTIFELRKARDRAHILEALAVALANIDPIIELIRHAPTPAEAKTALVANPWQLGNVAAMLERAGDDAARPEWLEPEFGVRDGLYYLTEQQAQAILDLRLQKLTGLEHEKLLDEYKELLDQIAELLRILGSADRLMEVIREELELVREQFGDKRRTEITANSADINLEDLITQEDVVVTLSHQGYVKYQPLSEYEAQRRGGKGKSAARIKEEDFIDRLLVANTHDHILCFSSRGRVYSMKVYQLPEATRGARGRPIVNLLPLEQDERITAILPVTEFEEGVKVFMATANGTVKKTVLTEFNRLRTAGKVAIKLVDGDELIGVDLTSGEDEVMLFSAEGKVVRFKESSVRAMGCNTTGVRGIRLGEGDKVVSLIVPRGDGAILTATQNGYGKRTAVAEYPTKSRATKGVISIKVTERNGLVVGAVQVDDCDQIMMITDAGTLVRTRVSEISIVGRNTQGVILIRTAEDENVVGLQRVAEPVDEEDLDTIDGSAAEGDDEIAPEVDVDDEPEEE

Structure (SMILES)	MIC (E. coli JL4) [µg/mL]	MIC (S. aureus UC-76) [µg/mL]	MIC (S. aureus 2552) [µg/mL]	MIC (E. coli LLM1) [µg/mL]	MIC (S. aureus 2558) [µg/mL]	MIC (S. aureus 2554) [µg/mL]	also measured
N[C@@H]1[C@H]2CN(c3cc4c(cc3F)c(=O)n(O)c(=O)n4C3CC3)C[C@@H]12 [drawing 287, reference compound]	0.25 (≈ 0.752 µM)	4 (≈ 12 µM)	32 (≈ 96.3 µM)	4 (≈ 12 µM)	> 64	32 (≈ 96.3 µM)	
Cl.Nn1c(=O)c2cc(F)c(N3CCC(CO)C3)c(Cl)c2n(C2CC2)c1=O (stereo not drawn) [Compound 12, 3-Amino-7-(3-hydroxymethylpyrrolidin-1-yl)-8-chloro-1-cyclopropyl-6-fluoro-1H-quinazoline-2,4-dione hydrochloride]	0.06	1	1	0.25	2	1	melting point: 78 to 80 °C; IC50 (E. coli gyrase): 2.1 µM; MIC (E. coli Tol C): 0.13 µg/mL; MIC (E. coli MC4100; MC4100, Gram negative, read-out: Minimum Inhibitory Concentrations E. coli MC4100): 16 µg/mL; MIC (S. pyogenes C203; C203, Gram positive, read-out: Minimum Inhibitory Concentrations S. pyogenes C203): 8 µg/mL; MIC (S. aureus 29213; Staphylococcus aureus, 29213, Gram positive, read-out: Minimum Inhibitory Concentrations S. aureus 29213): 2 µg/mL; MIC (E. faecalis RB1; RB1, Gram positive, read-out: Minimum Inhibitory Concentrations E. faecalis RB1): 4 µg/mL; MIC (E. coli B90; B90, Gram negative, read-out: Minimum Inhibitory Concentrations E. coli B90): 0.25 µg/mL
Cl.NC1CCN(c2c(F)cc3c(=O)n(N)c(=O)n(C4CC4)c3c2Cl)C1 (stereo not drawn) [Compound 10, 3-Amino-7-(3-aminopyrrolidin-1-yl)-8-chloro-1-cyclopropyl-6-fluoro-1H-quinazoline-2,4-dione hydrochloride]							PD50 (E. coli): 72 mg/kg
N[C@H]1CCN(c2cc3c(cc2F)c(=O)n(O)c(=O)n3C2CC2)C1 [reference compound]	0.5 (≈ 1.56 µM)	4 (≈ 12.5 µM)	> 64	2 (≈ 6.24 µM)	> 64	> 64	
NCC1CCN(c2c(F)cc3c(=O)n(N)c(=O)n(C4CC4)c3c2Cl)C1 (stereo not drawn) [Compound 1, 3-Amino-7-(3-aminomethylpyrrolidin-1-yl)-8-chloro-1-cyclopropyl-6-fluoro-1H-quinazoline-2,4-dione hydrochloride]	0.13	0.13	1	0.5	1	1	PD50 (S. pyogenes): 12 mg/kg; IC50 (E. coli gyrase; supercoiling of relaxed pBR322, 30 minutes at 37° C., read-out: E. coli gyrase IC50): 1 µM; MIC (E. coli Tol C): 0.25 µg/mL; MIC (E. coli MC4100; MC4100, read-out: Minimum Inhibitory Concentrations E. coli MC4100): 2 µg/mL; MIC (S. pyogenes C203; C203, read-out: Minimum Inhibitory Concentrations S. pyogenes C203): 0.13 µg/mL; MIC (S. aureus 29213; Staphylococcus aureus, 29213, read-out: Minimum Inhibitory Concentrations S. aureus 29213): 0.5 µg/mL; MIC (E. faecalis RB1; RB1, read-out: Minimum Inhibitory Concentrations E. faecalis RB1): 1 µg/mL; MIC (E. coli B90; B90, read-out: Minimum Inhibitory Concentrations E. coli B90): 1 µg/mL
N[C@@H]1[C@H]2CN(c3cc4c(cc3F)c(=O)n(O)c(=O)n4C3CC3)C[C@@H]12 [drawing 286, reference compound]							PD50 (S. pyogenes): >100 mg/kg
CC1(CN)CCN(c2c(F)cc3c(=O)n(N)c(=O)n(C4CC4)c3c2Cl)C1 (stereo not drawn) [Compound 3, 3-Amino-7-[3-(aminomethyl)-3-methylpyrrolidin-1-yl]-8-chloro-1-cyclopropyl-6-fluoro-1H-quinazoline-2,4-dione hydrochloride]	0.5	1	2	1	4	2	
